From PubChem BioAssay AID1963971 (Molecular Pharmacology Branch, DTP, NCI, 2024)

System: 953936-095-R-J2-PDC spheroids with HUVEC/MSC, viability
Assay: Anticancer human tumor 953936-095-R-J2-PDC patient-derived cervical squamous cell carcinoma cell line growth inhibition [PI3K]
Conditions: for IC50: curve of first compound; for viability, T/C: stronger effect = lower value
How it was run: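 Tumor cells grown as multi-cell spheroids with HUVEC endothelial cells and MSC fibroblast-like stroma were treated with targeted agents combined with inavolisib, alpelisib, duvelisib or copanlisib. Doses fell in half-log steps from near clinical Cmax, else from 10 microM. Viability was measured.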
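Note: spheroids exposed to compounds for seven days before read-out.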

## CNC(=O)c1ccc(N2C(=S)N(c3ccc(C#N)c(C(F)(F)F)c3)C(=O)C2(C)C)cc1F + COc1c(OCCCN2CCOCC2)ccc2c3n(c(=NC(=O)c4cnc(N)nc4)nc12)CCN3
Second compound 0.00316 µM
  IC50: > 10000 nM
Second compound 0.01 µM
  IC50: > 10000 nM
Second compound 0.0316 µM
  IC50: < 31.6 nM
Second compound 0.1 µM
  IC50: < 31.6 nM
Second compound 0.316 µM
  IC50: < 31.6 nM
Second compound 1 µM
  IC50: < 31.6 nM
Second compound 0.00316 µM, first compound 0.0316 µM
  viability, T/C: 86.8%
Second compound 0.00316 µM, first compound 0.1 µM
  viability, T/C: 85%
Second compound 0.00316 µM, first compound 0.316 µM
  viability, T/C: 92%
Second compound 0.00316 µM, first compound 1 µM
  viability, T/C: 89.7%
Second compound 0.00316 µM, first compound 3.16 µM
  viability, T/C: 81.6%
Second compound 0.00316 µM, first compound 10 µM
  viability, T/C: 70%
Second compound 0.01 µM, first compound 0.0316 µM
  viability, T/C: 72.6%
Second compound 0.01 µM, first compound 0.1 µM
  viability, T/C: 72.3%
Second compound 0.01 µM, first compound 0.316 µM
  viability, T/C: 76.7%
Second compound 0.01 µM, first compound 1 µM
  viability, T/C: 66.6%
Second compound 0.01 µM, first compound 3.16 µM
  viability, T/C: 74.6%
Second compound 0.01 µM, first compound 10 µM
  viability, T/C: 63.9%
Second compound 0.0316 µM, first compound 0.0316 µM
  viability, T/C: 42.1%
Second compound 0.0316 µM, first compound 0.1 µM
  viability, T/C: 43%
Second compound 0.0316 µM, first compound 0.316 µM
  viability, T/C: 42.3%
Second compound 0.0316 µM, first compound 1 µM
  viability, T/C: 45.8%
Second compound 0.0316 µM, first compound 3.16 µM
  viability, T/C: 41.6%
Second compound 0.0316 µM, first compound 10 µM
  viability, T/C: 37.3%
Second compound 0.1 µM, first compound 0.0316 µM
  viability, T/C: 19.2%
Second compound 0.1 µM, first compound 0.1 µM
  viability, T/C: 18.7%
Second compound 0.1 µM, first compound 0.316 µM
  viability, T/C: 18.4%
Second compound 0.1 µM, first compound 1 µM
  viability, T/C: 18%
Second compound 0.1 µM, first compound 3.16 µM
  viability, T/C: 19.6%
Second compound 0.1 µM, first compound 10 µM
  viability, T/C: 17.2%
Second compound 0.316 µM, first compound 0.0316 µM
  viability, T/C: 6.13%
Second compound 0.316 µM, first compound 0.1 µM
  viability, T/C: 6.8%
Second compound 0.316 µM, first compound 0.316 µM
  viability, T/C: 6.44%
Second compound 0.316 µM, first compound 1 µM
  viability, T/C: 6.88%
Second compound 0.316 µM, first compound 3.16 µM
  viability, T/C: 8.06%
Second compound 0.316 µM, first compound 10 µM
  viability, T/C: 6.65%
Second compound 1 µM, first compound 0.0316 µM
  viability, T/C: 1.46%
Second compound 1 µM, first compound 0.1 µM
  viability, T/C: 1.67%
Second compound 1 µM, first compound 0.316 µM
  viability, T/C: 1.58%
Second compound 1 µM, first compound 1 µM
  viability, T/C: 1.92%
Second compound 1 µM, first compound 3.16 µM
  viability, T/C: 1.61%
Second compound 1 µM, first compound 10 µM
  viability, T/C: 1.49%

## Cn1cnc2c(F)c(Nc3ccc(Br)cc3Cl)c(C(=O)NOCCO)cc21 + COc1c(OCCCN2CCOCC2)ccc2c3n(c(=NC(=O)c4cnc(N)nc4)nc12)CCN3
Second compound 0.00316 µM
  IC50: 370 nM
Second compound 0.01 µM
  IC50: 81 nM
Second compound 0.0316 µM
  IC50: < 9.49 nM
Second compound 0.1 µM
  IC50: < 9.49 nM
Second compound 0.316 µM
  IC50: < 9.49 nM
Second compound 1 µM
  IC50: < 9.49 nM
Second compound 0.00316 µM, first compound 0.00949 µM
  viability, T/C: 65.8%
Second compound 0.00316 µM, first compound 0.03 µM
  viability, T/C: 69.6%
Second compound 0.00316 µM, first compound 0.0949 µM
  viability, T/C: 52%
Second compound 0.00316 µM, first compound 0.3 µM
  viability, T/C: 59.1%
Second compound 0.00316 µM, first compound 0.949 µM
  viability, T/C: 36.6%
Second compound 0.00316 µM, first compound 3 µM
  viability, T/C: 25.4%
Second compound 0.01 µM, first compound 0.00949 µM
  viability, T/C: 63.4%
Second compound 0.01 µM, first compound 0.03 µM
  viability, T/C: 58.8%
Second compound 0.01 µM, first compound 0.0949 µM
  viability, T/C: 45.9%
Second compound 0.01 µM, first compound 0.3 µM
  viability, T/C: 42.1%
Second compound 0.01 µM, first compound 0.949 µM
  viability, T/C: 26.2%
Second compound 0.01 µM, first compound 3 µM
  viability, T/C: 18.3%
Second compound 0.0316 µM, first compound 0.00949 µM
  viability, T/C: 36.7%
Second compound 0.0316 µM, first compound 0.03 µM
  viability, T/C: 33.1%
Second compound 0.0316 µM, first compound 0.0949 µM
  viability, T/C: 19.7%
Second compound 0.0316 µM, first compound 0.3 µM
  viability, T/C: 15.4%
Second compound 0.0316 µM, first compound 0.949 µM
  viability, T/C: 7.92%
Second compound 0.0316 µM, first compound 3 µM
  viability, T/C: 4.93%
Second compound 0.1 µM, first compound 0.00949 µM
  viability, T/C: 12.6%
Second compound 0.1 µM, first compound 0.03 µM
  viability, T/C: 8.91%
Second compound 0.1 µM, first compound 0.0949 µM
  viability, T/C: 5.78%
Second compound 0.1 µM, first compound 0.3 µM
  viability, T/C: 3.64%
Second compound 0.1 µM, first compound 0.949 µM
  viability, T/C: 2.7%
Second compound 0.1 µM, first compound 3 µM
  viability, T/C: 0.27%
Second compound 0.316 µM, first compound 0.00949 µM
  viability, T/C: 3.5%
Second compound 0.316 µM, first compound 0.03 µM
  viability, T/C: 2.08%
Second compound 0.316 µM, first compound 0.0949 µM
  viability, T/C: 1.09%
Second compound 0.316 µM, first compound 0.3 µM
  viability, T/C: 0.45%
Second compound 0.316 µM, first compound 0.949 µM
  viability, T/C: 0.15%
Second compound 0.316 µM, first compound 3 µM
  viability, T/C: 0.17%
Second compound 1 µM, first compound 0.00949 µM
  viability, T/C: 0.66%
Second compound 1 µM, first compound 0.03 µM
  viability, T/C: 0.31%
Second compound 1 µM, first compound 0.0949 µM
  viability, T/C: 0.21%
Second compound 1 µM, first compound 0.3 µM
  viability, T/C: 0.16%
Second compound 1 µM, first compound 0.949 µM
  viability, T/C: 0.15%
Second compound 1 µM, first compound 3 µM
  viability, T/C: 0.2%
